In assay [1] the target is Kappa-type opioid receptor (Cavia porcellus, UniProt P41144). The experiment in a line: Displacement of [3H]-U69593 from KOR in guinea pig brain membranes measured by competitive radioligand receptor binding assay. It is filed as cell membranes, Membrane.
In assay [2] the target is Delta-type opioid receptor (Rattus norvegicus, UniProt P33533). The experiment in a line: Displacement of [3H]-DPDPE from DOR in rat brain membranes measured by competitive radioligand receptor binding assay. It is filed as cell membranes, Membrane. In general terms: In a radioligand displacement assay an active substance lowers the binding of a labelled ligand.
The target of assay [3] is T1, Sigma intracellular receptor 2 (Rattus norvegicus, UniProt Q5U3Y7).
T1 sequence (Q5U3Y7 whole entry): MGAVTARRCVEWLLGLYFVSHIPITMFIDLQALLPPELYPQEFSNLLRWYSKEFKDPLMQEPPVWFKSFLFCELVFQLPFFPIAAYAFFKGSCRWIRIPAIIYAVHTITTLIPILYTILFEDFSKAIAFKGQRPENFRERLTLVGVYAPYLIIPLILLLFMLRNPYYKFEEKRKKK
The assay can be described thus: Displacement of [3H]-di-o-tolylguanidine from sigma2 receptor in rat liver membrane measured by competitive radioligand receptor binding assay. It is filed as cell membranes.

Assay [4] addresses Sigma non-opioid intracellular receptor 1 (Cavia porcellus, UniProt Q60492). The experiment in a line: Displacement of [3H]-(+)-pentazocine from sigma1 receptor in guinea pig brain membrane measured by competitive radioligand receptor binding assay. It is filed as cell membranes.
A further assay addresses Mu-type opioid receptor (Cavia porcellus, UniProt P97266). The experiment in a line: Displacement of [3H]-DAMGO from MOR in guinea pig brain membranes measured by competitive radioligand receptor binding assay. It is filed as cell membranes, Membrane.

With `O=C(Cc1ccc(Cl)c(Cl)c1)N1CCCCC1CN1CCCC1` (stereo not drawn), the Ki (usually a measure of affinity in units of concentration, obtained from inhibition or displacement) in assay [1] worked out at 0.24 nM.
As for `O=C(Cc1ccc(Cl)c(Cl)c1)N1CC[C@H]2C[C@@H](N3CCCC3)[C@@H]1C2`, the Ki in assay [2] was 542 nM; in assay [3], 534 nM; in assay [4], 56 nM; in assay [1], 7 nM.
For `O=C(Cc1ccc(Cl)c(Cl)c1)N1CCC2CC1[C@H](N1CCCC1)C2` (stereo partly drawn), the Ki in assay [1] worked out at 7 nM.
Take `CN(C)[C@@H]1C[C@@H]2CCN(C(=O)Cc3ccc(Cl)c(Cl)c3)[C@H]1C2`: the Ki at Mu-type opioid receptor was above 1000 nM; in assay [3] it was 811 nM; in assay [4], 292 nM; in assay [1] it was 13 nM.
Take `O=C(Cc1ccc(Cl)c(Cl)c1)N1CC[C@H]2C[C@@H]1[C@@H](N1CCCC1)C2`: the figures for the Ki in assay [3], in assay [4] and in assay [1] were 171 nM, 10 nM and 1750 nM, respectively.
`O=C(Cc1ccc(Cl)c(Cl)c1)N1CC[C@@H]2CC[C@H](N3CCCC3)[C@H]1C2` displayed a Ki in assay [3] of 487 nM.
Turning to `O=C(Cc1ccc(Cl)c(Cl)c1)N1CCN2CC[C@@H](N3CCCC3)C1C2` (stereo partly drawn), the affinity in assay [1], expressed as Ki, was 73 nM.
Same read-out and setting: the result for `O=C(Cc1ccc(Cl)c(Cl)c1)N1CCC2CC1[C@@H](N1CCCC1)C2` (stereo partly drawn) reads 862 nM.
`O=C(Cc1ccc(Cl)c(Cl)c1)N1CC[C@H]2CC[C@@H](N3CCCC3)[C@@H]1C2` registered a Ki in assay [3] of 154 nM.
With `CN(C)[C@H]1C[C@H]2CCN(C(=O)Cc3ccc(Cl)c(Cl)c3)[C@@H]1C2`, the Ki in assay [3] is 213 nM; in assay [4], 17 nM; in assay [1], 531 nM.
In assay [1], `O=C(Cc1ccc(Cl)c(Cl)c1)N1CCN2CC[C@H](N3CCCC3)C1C2` (stereo partly drawn) came in with a Ki above 1000 nM.
Same read-out and setting: the result for `COC(=O)N1CCN(C(=O)Cc2ccc(Cl)c(Cl)c2)[C@H](CN2CCCC2)C1` reads 0.46 nM.
`CN(C)[C@@H]1CCC2CCN(C(=O)Cc3ccc(Cl)c(Cl)c3)C1C2` (mixture of isomers) showed a Ki in assay [3] of 608 nM.
